Measured values: patent publication US20240239861A1, “GLUCAGON-RECEPTOR SELECTIVE POLYPEPTIDES AND METHODS OF USE THEREOF” (i2O Therapeutics, Inc., priority 2016, published 2024)
Where a SMILES comes first, the peptide text is derived from it. [ ]: non-standard residue; d: D form. Aib = CC(C)(N)C(=O)O

Tests used:
[1] = biological target: human GLP-1R (Homo sapiens, UniProt P43220); assay: Peptide-receptor mediated cAMP accumulation (LANCE Ultra cAMP) in CHO-K1 cells transfected with human GLP-1R; format: cell-based; conditions: hGLP1 pEC50 (cAMP mean (n = 3): 11 point curve starting at 1 nM, Table 3)
human GLP-1R, sequence (P43220 24-463): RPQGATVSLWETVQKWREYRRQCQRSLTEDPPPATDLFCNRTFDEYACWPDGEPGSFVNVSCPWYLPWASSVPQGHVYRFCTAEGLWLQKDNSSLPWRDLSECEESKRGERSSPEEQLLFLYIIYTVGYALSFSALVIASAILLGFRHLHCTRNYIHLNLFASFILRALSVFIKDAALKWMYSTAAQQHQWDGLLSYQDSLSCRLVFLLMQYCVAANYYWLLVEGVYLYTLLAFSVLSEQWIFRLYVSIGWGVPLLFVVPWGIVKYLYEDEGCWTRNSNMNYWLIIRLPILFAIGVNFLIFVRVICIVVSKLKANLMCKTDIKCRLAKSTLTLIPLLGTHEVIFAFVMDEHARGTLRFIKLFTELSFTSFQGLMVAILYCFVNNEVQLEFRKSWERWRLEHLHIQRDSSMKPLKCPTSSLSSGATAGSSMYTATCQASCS

[2] = in vivo; conditions: male, rat
Description: Peptides were formulated in sterile saline and administered as a 3-hour intravenous infusion to non-fasted male Wistar Han or Sprague-Dawley rats (n=3 per group) via jugular vein cannula at a final dose of 0.3 or 0.1 mg/kg. […] Plasma was prepared by centrifugation and stored at −80° C. until analysis.
Protein Precipitation: All 96-well plates were coated with a blocking agent to mitigate non-specific binding of peptides. Plasma samples (75 uL) were added to a 96-well plate containing 200 uL of 2:1 ethanol:acetonitrile containing 0.1% TFA and mixed well via aspiration. Plates were capped, vortex-mixed and centrifuged. Supernatants (215 uL) were transferred to a clean 96-well plate, evaporated to dryness under nitrogen flow and then reconstituted in 75 μL of 20% acetonitrile in water containing 0.10% formic acid.
Solid-Phase Extraction: Samples were diluted 3-fold with 5% NH4OH (aq) and loaded onto an Oasis MAX microElution plate (Waters Corp, Milford, MA) that had been pre-conditioned with 200 uL each of methanol and 5% NH4OH (aq). The plate was washed with 200 uL 5% NH4OH (aq), followed by 200 uL 20% acetonitrile in water. […] Samples were reconstituted in 80 uL 0.1% formic acid in water.
All calibration standards were prepared in control rat plasma containing K2EDTA and protease inhibitor cocktail. […] Samples were injected onto a 2.1×50 mm reverse phase C18 analytical column, typically a Waters ACQUITY UPLC™ HSS T3, 1.8 μm (Waters Corporation, Milford, MA) or similar. […] Typical flow rates were 600 L/min. The column temperature was held constant at 40 or 45° C. Peptides were quantified my monitoring one or more product ions produced from a multiply charged parent ion.

Row | SMILES | EC50 [1] | clearance [2]
1 | CC(C)C[C@H](NC(=O)[C@H](Cc1ccc(O)cc1)NC(=O)[C@H](CCCCN)NC(=O)[C@H](CO)NC(=O)[C@H](Cc1ccc(O)cc1)NC(=O)[C@H](CC(=O)O)NC(=O)[C@H](CO)NC(=O)[C@@H](NC(=O)[C@H](Cc1ccccc1)NC(=O)[C@@H](NC(=O)CNC(=O)[C@H](Cc1c[nH]cn1)NC(=O)[C@H](CO)NC(=O)[C@@H](N)Cc1ccc(O)cc1)[C@@H](C)O)[C@@H](C)O)C(=O)N[C@@H](CC(=O)O)C(=O)NC(C)(C)C(=O)N[C@@H](CCCCN)C(=O)N[C@@H](CCCNC(=N)N)C(=O)N[C@@H](C)C(=O)N[C@@H](CCC(N)=O)C(=O)N[C@@H](CCC(=O)O)C(=O)N[C@@H](Cc1ccccc1)C(=O)N[C@H](C(=O)NC(C)(C)C(=O)N[C@@H](Cc1c[nH]c2ccccc12)C(=O)N[C@@H](CC(C)C)C(=O)N[C@@H](CCC(=O)O)C(=O)N[C@@H](CC(=O)O)C(=O)N[C@@H](CCC(=O)O)C(=O)N1CCC[C@H]1C(=O)N[C@@H](CCCCN)C(=O)N[C@@H](CO)C(=O)N[C@@H](CCCCN)C(=O)N[C@@H](CO)C(=O)N1CCC[C@H]1C(=O)N1CCC[C@H]1C(=O)N1CCC[C@H]1C(=O)N[C@@H](CO)C(=O)O)C(C)C [Compound A58] (H-YSHGTFTSDYSKYLD[Aib]KRAQEFV[Aib]WLEDEPKSKSPPPS-OH; N-terminus assumed) | > 1 nM | 37.7 mL/min/kg
2 | CC(C)C[C@H](NC(=O)[C@H](Cc1ccc(O)cc1)NC(=O)[C@H](CCCCN)NC(=O)[C@H](CO)NC(=O)[C@H](Cc1ccc(O)cc1)NC(=O)[C@H](CC(=O)O)NC(=O)[C@H](CO)NC(=O)[C@@H](NC(=O)[C@H](Cc1ccccc1)NC(=O)[C@@H](NC(=O)CNC(=O)[C@H](Cc1c[nH]cn1)NC(=O)[C@H](CO)NC(=O)[C@@H](N)Cc1ccc(O)cc1)[C@@H](C)O)[C@@H](C)O)C(=O)N[C@@H](CC(=O)O)C(=O)N[C@@H](CO)C(=O)N[C@@H](C)C(=O)N[C@@H](CCCNC(=N)N)C(=O)N[C@@H](C)C(=O)N[C@@H](CCC(N)=O)C(=O)N[C@@H](CCC(=O)O)C(=O)N[C@@H](Cc1ccccc1)C(=O)N[C@H](C(=O)N[C@@H](CCCCN)C(=O)N[C@@H](Cc1c[nH]c2ccccc12)C(=O)N[C@@H](CC(C)C)C(=O)N[C@@H](CCC(=O)O)C(=O)N[C@@H](CC(=O)O)C(=O)N[C@@H](CCC(=O)O)C(=O)N1CCC[C@H]1C(=O)N[C@@H](CCCCN)C(=O)N[C@@H](CO)C(=O)N[C@@H](CCCCN)C(=O)N[C@@H](CCC(=O)O)C(=O)N1CCC[C@H]1C(=O)N1CCC[C@H]1C(=O)N1CCC[C@H]1C(=O)N[C@@H](CO)C(N)=O)C(C)C [Compound A72] (H-YSHGTFTSDYSKYLDSARAQEFVKWLEDEPKSKEPPPS-NH2) | > 1 nM | 31.3 mL/min/kg
3 | CC(C)C[C@H](NC(=O)[C@H](Cc1ccc(O)cc1)NC(=O)[C@H](CCCCN)NC(=O)[C@H](CO)NC(=O)[C@H](Cc1ccc(O)cc1)NC(=O)[C@H](CC(=O)O)NC(=O)[C@H](CO)NC(=O)[C@@H](NC(=O)[C@H](Cc1ccccc1)NC(=O)[C@@H](NC(=O)CNC(=O)[C@H](Cc1c[nH]cn1)NC(=O)[C@H](CO)NC(=O)[C@@H](N)Cc1ccc(O)cc1)[C@@H](C)O)[C@@H](C)O)C(=O)N[C@@H](CC(=O)O)C(=O)NC(C)(C)C(=O)N[C@@H](CCCCN)C(=O)N[C@@H](C)C(=O)N[C@@H](C)C(=O)N[C@@H](CCC(N)=O)C(=O)N[C@@H](CCC(=O)O)C(=O)N[C@@H](Cc1ccccc1)C(=O)N[C@H](C(=O)NC(C)(C)C(=O)N[C@@H](Cc1c[nH]c2ccccc12)C(=O)N[C@@H](CC(C)C)C(=O)N[C@@H](CCC(=O)O)C(=O)N[C@@H](CC(=O)O)C(=O)N[C@@H](CCC(=O)O)C(=O)N1CCC[C@H]1C(=O)N[C@@H](CO)C(=O)N[C@@H](CO)C(=O)NCC(=O)N[C@@H](C)C(=O)N1CCC[C@H]1C(=O)N1CCC[C@H]1C(=O)N1CCC[C@H]1C(=O)N[C@@H](CO)C(=O)O)C(C)C [Compound A76] (H-YSHGTFTSDYSKYLD[Aib]KAAQEFV[Aib]WLEDEPSSGAPPPS-OH; N-terminus assumed) | > 1 nM | 15.1 mL/min/kg
4 | CC(C)C[C@H](NC(=O)[C@H](Cc1ccc(O)cc1)NC(=O)[C@H](CCCCN)NC(=O)[C@H](CO)NC(=O)[C@H](Cc1ccc(O)cc1)NC(=O)[C@H](CC(=O)O)NC(=O)[C@H](CO)NC(=O)[C@@H](NC(=O)[C@H](Cc1ccccc1)NC(=O)[C@@H](NC(=O)CNC(=O)[C@H](CCC(N)=O)NC(=O)[C@H](CO)NC(=O)[C@@H](N)Cc1ccc(O)cc1)[C@@H](C)O)[C@@H](C)O)C(=O)N[C@@H](CC(=O)O)C(=O)NC(C)(C)C(=O)N[C@@H](CCCCN)C(=O)N[C@@H](CCCNC(=N)N)C(=O)N[C@@H](C)C(=O)N[C@@H](CCC(N)=O)C(=O)N[C@@H](CCC(=O)O)C(=O)N[C@@H](Cc1ccccc1)C(=O)N[C@H](C(=O)NC(C)(C)C(=O)N[C@@H](Cc1c[nH]c2ccccc12)C(=O)N[C@@H](CC(C)C)C(=O)N[C@@H](CCC(=O)O)C(=O)N[C@@H](CC(=O)O)C(=O)N[C@@H](CCC(=O)O)C(=O)N1CCC[C@H]1C(=O)N[C@@H](CO)C(=O)N[C@@H](CO)C(=O)NCC(=O)N[C@@H](CCCCN)C(=O)N1CCC[C@H]1C(=O)N1CCC[C@H]1C(=O)N1CCC[C@H]1C(=O)N[C@@H](CO)C(=O)O)C(C)C [Compound A86] (H-YSQGTFTSDYSKYLD[Aib]KRAQEFV[Aib]WLEDEPSSGKPPPS-OH; N-terminus assumed) | > 1 nM | 14.7 mL/min/kg
5 | CC(C)C[C@H](NC(=O)[C@H](Cc1ccc(O)cc1)NC(=O)[C@H](CCCCN)NC(=O)[C@H](CO)NC(=O)[C@H](Cc1ccc(O)cc1)NC(=O)[C@H](CC(=O)O)NC(=O)[C@H](CO)NC(=O)[C@@H](NC(=O)[C@H](Cc1ccccc1)NC(=O)[C@@H](NC(=O)CNC(=O)[C@H](CCC(N)=O)NC(=O)[C@H](CO)NC(=O)[C@@H](N)Cc1c[nH]c2ccccc12)[C@@H](C)O)[C@@H](C)O)C(=O)N[C@@H](CC(=O)O)C(=O)NC(C)(C)C(=O)N[C@@H](CCCCN)C(=O)N[C@@H](CCCNC(=N)N)C(=O)N[C@@H](C)C(=O)N[C@@H](CCC(N)=O)C(=O)N[C@@H](CCC(=O)O)C(=O)N[C@@H](Cc1ccccc1)C(=O)N[C@H](C(=O)NC(C)(C)C(=O)N[C@@H](Cc1c[nH]c2ccccc12)C(=O)N[C@@H](CC(C)C)C(=O)N[C@@H](CCC(=O)O)C(=O)N[C@@H](CC(=O)O)C(=O)N[C@@H](CCC(=O)O)C(=O)N1CCC[C@H]1C(=O)N[C@@H](CO)C(=O)N[C@@H](CO)C(=O)NCC(=O)N[C@@H](CCCCN)C(=O)N1CCC[C@H]1C(=O)N1CCC[C@H]1C(=O)N1CCC[C@H]1C(=O)N[C@@H](CO)C(=O)O)C(C)C [Compound A91] (H-WSQGTFTSDYSKYLD[Aib]KRAQEFV[Aib]WLEDEPSSGKPPPS-OH; N-terminus assumed) | > 1 nM | 13.7 mL/min/kg
